This note sets out measurements from US6495591B1, “Fungal efflux pump inhibitors” (Essential Therapeutics, Inc., priority 1997, dated 2002).

Where two headings read alike, the source gives them in different places.

Holding throughout (type): cell-based
Assay [1] has as its system Aspergillus fumigatus. The assay is described as follows: FEPI MICs in combination with 1/4 the azole's MIC (Table 12). Further details: FEPI MIC (alone): unit not given here. To be noted: for FEPI MIC with itraconazole, 60% Inh / FEPI MIC with itraconazole, 80% Inh: itraconazole 0.063 μg/ml (1/4 MIC); for FEPI MIC with ketoconazole, 60% Inh / FEPI MIC with ketoconazole, 80% Inh: ketoconazole 4 μg/ml (1/4 MIC); for FEPI MIC (alone): no azole, 35° C., CM Broth. Here is the method: The combinations were tested against a series of Candida strain with known expression of efflux pumps or with complete deletion of all known pumps and Aspergillus fumigatus. Results are reported as minimum inhibitory concentration (MIC) of […] in the presence or absence of […]. A total of 27 distinct milbemycins were studied.

Assay [2] has as its system YEM 30 C. albicans wt. The assay is described as follows: FEPI MIC with/without 1/8 fluconazole MIC at 24 hrs (Table 11).
The test system of assay [3] is YEM 51 C. glabrata wt. The description is as above.
Assay [4] deals with YEM 24 C. albicans ΔCDR1, ΔCDR2. The assay is described as follows: microbe, parasite or virus in culture. The following applies: YEM 24, 24 hrs, 80% inhibition; for MIC of compound in the presence of fluconazole (+): 1/8 × MIC of fluconazole.
Assay [5] has as its system YEM 13 C. albicans BEN up. The assay is described as follows: microbe, parasite or virus in culture. To be noted: YEM 13, 24 hrs, 80% inhibition; for MIC of compound in the presence of fluconazole (+): 1/8 × MIC of fluconazole.
Assay [6] relates to YEM 27 C. albicans ΔCDR1ΔCDR2 ΔBENΔFLU1. The assay is described as follows: microbe, parasite or virus in culture. The following applies: YEM 27, 24 hrs, 80% inhibition; for MIC of compound in the presence of fluconazole (+): 1/8 × MIC of fluconazole.
The test system of assay [7] is YEM 15 C. albicans, CDR1CDR2 up. The assay is described as follows: microbe, parasite or virus in culture. The following applies: YEM 15, 24 hrs, 80% inhibition; for MIC of compound in the presence of fluconazole (+): 1/8 × MIC of fluconazole.
Assay [8] has as its system YEM 17 C. glabrata, CgCDR up. To be noted: 24 hrs, 80% inhibition; for MIC of compound in the presence of fluconazole (+): 1/8 × MIC of fluconazole.
The test system of assay [9] is YEM 53 C. krusei. The assay is described as follows: FEPI MIC with/without 1/8 fluconazole MIC at 24 hrs (Table 11).
[10] abbreviates: fluconazole 32 μg/ml (1/4 MIC), 60% inhibition.
The mark [11] stands for this setting: fluconazole 32 μg/ml (1/4 MIC), 80% inhibition.
[12] abbreviates: YEM 30, 1/8 × MIC of fluconazole, 24 hrs, 80% inhibition.
[13] abbreviates: YEM 51, 1/8 × MIC of fluconazole, 24 hrs, 80% inhibition.
[14] abbreviates: YEM 53, 1/8 × MIC of fluconazole, 24 hrs, 80% inhibition.

Regarding `CCC(C)C1OC2(CC3CC(CC=C(C)C(O)C(C)C=CC=C4COC5C(O)C(C)=CC(C(=O)O3)C45O)O2)CC(O)C1C` (stereo not drawn) [Compound 14, Avermectin β2a aglycone], the “FEPI MIC with fluconazole, 60% Inh” value in assay [1] (setting [10]) was found to be 64. Besides, in [1] (setting [11]), the “FEPI MIC with fluconazole, 80% Inh” value is listed as greater than 64. Besides, the “FEPI MIC with itraconazole, 60% Inh” value in [1] (60% inhibition) is on record as greater than 64. In assay [1] (80% inhibition), the “FEPI MIC with itraconazole, 80% Inh” value was greater than 64. Further, the “FEPI MIC with ketoconazole, 60% Inh” value in [1] (60% inhibition) was found to be 2. Also, the “FEPI MIC with ketoconazole, 80% Inh” value in assay [1] (80% inhibition) stood at 16. Moreover, in assay [1] (80% inhibition), the “FEPI MIC (alone)” value is on record as greater than 64. Further, the MIC of compound in the presence of fluconazole (+) is 4 µg/mL in assay [2] (setting [12]); 16 µg/mL in [3] (setting [13]); greater than 64 µg/mL in [4]; greater than 64 µg/mL in assay [5]; greater than 64 µg/mL in assay [6]; 2 µg/mL in assay [7]. For the same compound, the MIC of compound in the presence of fluconazole (+) is 16 µg/mL in assay [8] and greater than 64 µg/mL in [9] (setting [14]). Moreover, the MIC of compound in the absence of fluconazole (−) in [2] (YEM 30, 24 hrs, 80% inhibition) is greater than 64 µg/mL; in [3] (YEM 51, 24 hrs, 80% inhibition), greater than 64 µg/mL; in assay [4], greater than 64 µg/mL; in [5], greater than 64 µg/mL; in [6] it was greater than 64 µg/mL; in assay [7] it was greater than 64 µg/mL. The MIC of compound in the absence of fluconazole (−) in assay [8] is greater than 64 µg/mL; in assay [9] (YEM 53, 24 hrs, 80% inhibition), greater than 64 µg/mL.
As for “8-Methyl-8-deoxymilbemycin β1 [Compound 24]”, the “FEPI MIC with fluconazole, 60% Inh” value in assay [1] (setting [10]) is 64. Further, in [1] (setting [11]), the “FEPI MIC with fluconazole, 80% Inh” value came to 64. Besides, in assay [1] (60% inhibition), the “FEPI MIC with itraconazole, 60% Inh” value was found to be 64. The “FEPI MIC with itraconazole, 80% Inh” value in assay [1] (80% inhibition) came out at 64. In assay [1] (60% inhibition), the “FEPI MIC with ketoconazole, 60% Inh” value is given as “≦0.063”. Also, the “FEPI MIC with ketoconazole, 80% Inh” value in assay [1] (80% inhibition) is on record as “≦0.063”. Besides, the “FEPI MIC (alone)” value in [1] (80% inhibition) was determined as 64. The “MIC of compound in the presence of fluconazole (+)” value in [2] (setting [12]) is “≦0.03”; in [3] (setting [13]), 0.125 µg/mL; in assay [4] it was greater than 64 µg/mL; in [5], 64 µg/mL; in assay [6], 64 µg/mL; in assay [7], “≦0.03”. Also, the MIC of compound in the presence of fluconazole (+) in [8] is 1 µg/mL; in assay [9] (setting [14]) it was greater than 64 µg/mL. In addition, the MIC of compound in the absence of fluconazole (−) in [2] (YEM 30, 24 hrs, 80% inhibition) is greater than 64 µg/mL; in assay [3] (YEM 51, 24 hrs, 80% inhibition), greater than 64 µg/mL; in [4], greater than 64 µg/mL; in assay [5] it was greater than 64 µg/mL; in assay [6], greater than 64 µg/mL; in [7], greater than 64 µg/mL. In addition, the MIC of compound in the absence of fluconazole (−) in [8] is greater than 64 µg/mL; in assay [9] (YEM 53, 24 hrs, 80% inhibition) it was greater than 64 µg/mL.
Regarding `CC1=C[C@H]2C(=O)O[C@H]3C[C@@H](C/C=C(\C)C[C@@H](C)/C=C/C=C4\CO[C@H]([C@@H]1O)[C@@]42O)O[C@@]1(CC[C@H](C)[C@@H](C(C)C)O1)C3` [Compound 12, Milbemycin D], the “FEPI MIC with fluconazole, 60% Inh” value in assay [1] was determined as 16. Besides, the “FEPI MIC with fluconazole, 80% Inh” value in assay [1] was greater than 64. Also, in assay [1] (60% inhibition), the “FEPI MIC with itraconazole, 60% Inh” value stood at 8. The “FEPI MIC with itraconazole, 80% Inh” value in assay [1] (80% inhibition) is reported as greater than 64. Further, the “FEPI MIC with ketoconazole, 60% Inh” value in assay [1] (60% inhibition) was 0.125. The “FEPI MIC with ketoconazole, 80% Inh” value in assay [1] (80% inhibition) came out at 1. Also, in assay [1] (80% inhibition), the “FEPI MIC (alone)” value was greater than 64. The MIC of compound in the presence of fluconazole (+) is 4 µg/mL in [2]; 8 µg/mL in [3]; greater than 64 µg/mL in assay [4]; greater than 64 µg/mL in assay [5]; 64 µg/mL in assay [6]; “≦0.03” in assay [7]. Further, the figures for the MIC of compound in the presence of fluconazole (+) in [8] and in assay [9] were 32 µg/mL and 8 µg/mL, respectively. Besides, the MIC of compound in the absence of fluconazole (−) is greater than 64 µg/mL in [2] (YEM 30, 24 hrs, 80% inhibition); greater than 64 µg/mL in [3] (YEM 51, 24 hrs, 80% inhibition); greater than 64 µg/mL in assay [4]; greater than 64 µg/mL in assay [5]; greater than 64 µg/mL in assay [6]; greater than 64 µg/mL in assay [7]. The MIC of compound in the absence of fluconazole (−) in assay [8] was greater than 64 µg/mL; in assay [9] (YEM 53, 24 hrs, 80% inhibition) it was greater than 64 µg/mL.
